The experiment has as its system HSV-2 strain 333 quiescently infected ND-PC12 (QIF-PC12) cell cultures. The experiment in a line: Induction of HSV-2 from QIF-PC12 cell cultures; virus production by direct plaque assay of supernatants on Vero cells. The format is cell-based. The following applies: for cultures activating virus in response to forskolin: Vero cocultivation day 12 p.i. How it is done: For morphologic differentiation, PC12 cells were maintained in RPMI 1640 supplemented 0.1% bovine serum albumin, fraction V (BSA) and 50 ng/ml of 2.5S mouse nerve growth nerve factor (NGF) (Becton Dickinson) (maintenance media) throughout the studies, unless indicated, beginning on the day of plating. PC12 were plated, following two rinses with RPMI 1640 containing 0.1% BSA and dissociation by passage through a 22-gauge needle, in 12-well tissue culture dishes (Bector Dickinson Labware, Franklin Lakes, N.J., USA) coated with rat tail collagen type 1 (Bector Dickinson) at 1.1×10^5 cells/well in maintenance media. Collagen was applied as recommended by the supplier. Following 4 days of differentiation in maintenance media, cultures were maintained in RPMI 1640 supplemented with 10% horse serum (heat-inactivated) and 5% FBS, and 50 ng/ml NGF for 2 days. The following day cultures received maintenance media supplemented with 100 μM acycloguanosine (ACV) when indicated, purchased from Sigma (St. Louis, Mo., USA). Morphologic differentiation was confirmed by microscopic visualization of dendritic processes. Media was changed every 2 to 3 days unless indicated.
ND-PC12 cells were infected in a volume of 0.4 ml/well in 12-well plates without agitation at the indicated multiplicity of infection (MOI) overnight at 37° C. When used, ACV was maintained in the medium from 1 day prior to infection 8 days post-infection (p.i.). After ACV withdrawal, a quiescent state (i.e., free of detectable infectious virus in culture supernatants) was maintained for at least 7 days prior to induction. At the indicated times, Vero cells were trypsinized, washed twice with RPMI and introduced into the QIF-PC12 cell cultures at a ratio of 1:1 in maintenance media.
HSV QIF-PC12 cells, that were free of detectable infectious virus, were subjected to heat stress (43° C. for 3 h in an incubator), or maintenance media supplemented with or without 50 μM forskolin (Sigma) as previously described (Danaher et al, 1999a,b). Virus production was determined using 25% volume of supernatants from infected PC12 cultures in a direct plaque assay (DPA) on monolayers of Vero cells as previously described (Miller and Smith, 1991). Cultures were subsequently replenished with fresh maintenance media.
Based on these findings, forskolin and HS induced HSV-2 reactivation from QIF-PC12 cell cultures that were cocultivated with Vero cells was analyzed in more detail. QIF-PC12 cell cultures were established with strain 333 at MOI of 10 as described in the Materials and methods using transient ACV treatment. Cultures were cocultivated with Vero cells at a ratio of 1:1 three days before induction with forskolin or HS (day 15 p.i.). Virus production was monitored from day 10 through 23 p.i. Prior to induction, HSV-2 was detected infrequently (2.8%; 1/36) in cocultivated cultures. The 35 cultures that were not shedding virus were used in induction assays. Following induction treatment (FIG. 1), virus was detected in 90 to 100% of HS and forskolin induced cocultivated cultures, and 8.3% (1/12) of mock-induced cocultivated cultures.
To assess this, QIF-PC12 cell cultures were established with HSV-2 as described above. Cultures were cocultivated with Vero cells at a ratio of 1:1 within 10 days of AC withdrawal. Induction was performed with forskolin on day 30 p.i. Cultures were monitored for virus production using culture supernatants. Over the 3 week period between ACV withdrawal and induction, 71% (17/24) of the HSV-2 infected culture maintained quiescence. HSV-2 was produced from 100% (8/8) of forskolin induced cultures and 0% (0/9) of mock induced cultures by 8 days post-induction (data not shown).
Next, it was determined whether the efficiency of HSV-2 activation from quiescence was MOI-dependent. QIF-PC12 cell cultures were established with HSV-2 strain 333 at MOIs of 3 and 30 and cocultivated with Vero cells at a ratio of 1:1 on day 12 p.i. as above. […]

The structures appear in SMILES notation.

For `C=C[C@@]1(C)CC(=O)[C@]2(O)[C@@]3(C)[C@@H](O)CCC(C)(C)[C@@H]3[C@H](O)[C@H](OC(C)=O)[C@@]2(C)O1` [forskolin], the “cultures activating virus in response to forskolin” value is, setting by setting: (50 μM forskolin day 15 p.i., MOI of 3, established with ACV, 9/11 by day 7) 82%; (50 μM forskolin day 15 p.i., MOI of 30, established with ACV, 12/12 by day 6) 100%. Moreover, the “cultures producing HSV-2 after forskolin induction” value reads like this: (established without ACV, MOI of 3, 50 μM forskolin day 15 p.i., by day 6 post-induction, 10/11 cultures) 91%; (forskolin on day 30 p.i., established with ACV, Vero cocultivation, by 8 days post-induction, 8/8 cultures) 100%. The “cultures from which virus was recovered after forskolin induction” value (established without ACV, MOI of 3, previously mock induced non-productive cultures, forskolin induced on day 30 p.i., 4/4 cultures) stood at 100%. Moreover, the “forskolin induced reactivation (cultures)” value (established without ACV, MOI of 30, 50 μM forskolin day 15 p.i., 9/10 cultures) was found to be 90%.

The values above are taken from patent publication US6573041B2, “Neuronal cell model and methods of use thereof” (priority 2000, dated 2003).
